Data reported in ChEMBL document CHEMBL5329196, “Development of truncated Battacin antimicrobials featuring novel N-terminal fatty acids with an excellent safety profile” (Bioorg Med Chem Lett, 2023).
Converted amounts (≈) assume the structure as drawn. Where a SMILES comes first, the peptide text is derived from it.

Columns and labels:
Staphylococcus aureus = experiment: Antibacterial activity against Staphylococcus aureus assessed as inhibition of bacterial growth incubated for 24 hrs by visual inspection analysis; type: functional
[1] = Induction of hemolysis in mouse RBC assessed as induction of hemoglobin release at ~100 uM incubated for 1 hr by absorbance based analysis; type: toxicity, cell-based, Erythrocyte; conditions: mouse red blood cells (erythrocytes), read-out: Activity
[2] = (§1) Cytotoxicity against human NCI-H460 cells assessed as reduction in cell viability measured after 24 hrs by quantitative live/dead fluorescence microscopy; type: toxicity, cell-based; conditions: human, NCI-H460 cells
[3] = (§2) Cytotoxicity against human MDA-MB-231 cells assessed as reduction in cell viability measured after 24 hrs by quantitative live/dead fluorescence microscopy; type: toxicity, cell-based; conditions: human, MDA-MB-231 cells
[4] = Selectivity ratio of EC50 for cytotoxicity against human MDA-MB-231 cells to EC50 for cytotoxicity against human NCI-H460 cells; type: functional
[5] = (§3) Induction of hemolysis in mouse RBC assessed as induction of hemoglobin release incubated for 1 hr by absorbance based analysis; type: toxicity, cell-based, Erythrocyte; conditions: mouse, mouse red blood cells (erythrocytes)
[6] = Therapeutic index, ratio of EC50 for induction of hemolytic activity against mouse RBC to MIC for antibacterial activity against Staphylococcus aureus; type: toxicity; conditions: mouse red blood cells (erythrocytes), read-out: TI
[7] = Pro-aggregation of the compound in human NCI-H460 cells at 1 mM by Bright field microscopic analysis; type: physicochemical, cell-based; conditions: nci-h460, 1000 µM
[8] = Pro-aggregation of the compound in human NCI-H460 cells at 1 mM by fluorescence microscopic analysis; type: physicochemical, cell-based; conditions: nci-h460, 1000 µM
[9] = Pro-aggregation of the compound in human MDA-MB-231 cells at 1 mM by Bright field microscopic analysis; type: physicochemical, cell-based; conditions: mda-mb-231, 1000 µM
[10] = Pro-aggregation of the compound in human MDA-MB-231 cells at 1 mM by fluorescence microscopic analysis; type: physicochemical, cell-based; conditions: mda-mb-231, 1000 µM
[11] = Induction of hemolysis in mouse RBC assessed as induction of hemoglobin release at ~400 uM incubated for 1 hr by absorbance based analysis; type: toxicity, cell-based, Erythrocyte; conditions: mouse red blood cells (erythrocytes), read-out: Activity
NCI-H460 = experiment: as §1; type: toxicity, cell-based; conditions: nci-h460
MDA-MB-231 = experiment: as §2; type: toxicity, cell-based; conditions: mda-mb-231
Erythrocyte = experiment: as §3; type: toxicity, cell-based; conditions: erythrocyte

| Compound | MIC (Staphylococcus aureus) | Activity [7] | Activity [8] | Activity [9] | Activity [10] | other results |
| --- | --- | --- | --- | --- | --- | --- |
| C=CC(C)C(C)C(=O)N[C@H](CCN)C(=O)N[C@@H](CCN)C(=O)N[C@@H](CC(C)C)C(=O)N[C@H](Cc1ccccc1)C(=O)N[C@@H](CCN)C(N)=O (stereo partly drawn) | 18.2 µM (≈ 12.5 µg/mL) | – | – | – | – | – |
| CCCOc1ccc(/C=C/CCC(=O)N[C@H](CCN)C(=O)N[C@@H](CCN)C(=O)N[C@@H](CC(C)C)C(=O)N[C@H](Cc2ccccc2)C(=O)N[C@@H](CCN)C(N)=O)cc1 | 1 µM (≈ 0.794 µg/mL) | Active | Active | Active | Active | hemolysis at 1 h, 100 µM [1]: 2.1%; EC50 at 24 h [2]: 90 µM; EC50 at 24 h [3]: 221 µM; Ratio EC50 [4]: 2; EC50 at 1 h [5]: ~330 µM; selectivity ratio [6]: 135 |
| CC(C)C[C@H](NC(=O)[C@H](CCN)NC(=O)[C@@H](CCN)NC(=O)CC/C=C/c1ccccc1)C(=O)N[C@H](Cc1ccccc1)C(=O)N[C@@H](CCN)C(N)=O | 2.1 µM (≈ 1.55 µg/mL) | – | – | – | – | – |
| COc1ccc(/C=C/CCC(=O)N[C@H](CCN)C(=O)N[C@@H](CCN)C(=O)N[C@@H](CC(C)C)C(=O)N[C@H](Cc2ccccc2)C(=O)N[C@@H](CCN)C(N)=O)cc1 | 2 µM (≈ 1.53 µg/mL) | – | – | – | – | – |
| CC(C)C[C@H](NC(=O)[C@H](CCN)NC(=O)[C@@H](CCN)NC(=O)C(C)C(C)/C=C/c1ccccc1)C(=O)N[C@H](Cc1ccccc1)C(=O)N[C@@H](CCN)C(N)=O (stereo partly drawn) | 1 µM (≈ 0.764 µg/mL) | Active | Active | Active | Active | hemolysis at 1 h, 400 µM [11]: 3.4%; EC50 at 24 h [2]: 324 µM; EC50 at 24 h [3]: 898 µM; Ratio EC50 [4]: 2; EC50 at 1 h [5]: ≥ 400 µM; selectivity ratio [6]: > 267 |
| CCc1ccc(/C=C/CCC(=O)N[C@H](CCN)C(=O)N[C@@H](CCN)C(=O)N[C@@H](CC(C)C)C(=O)N[C@H](Cc2ccccc2)C(=O)N[C@@H](CCN)C(N)=O)cc1 | 1 µM (≈ 0.764 µg/mL) | – | – | – | – | – |
| CCCCc1ccc(/C=C/CCC(=O)N[C@H](CCN)C(=O)N[C@@H](CCN)C(=O)N[C@@H](CC(C)C)C(=O)N[C@H](Cc2ccccc2)C(=O)N[C@@H](CCN)C(N)=O)cc1 | 1 µM (≈ 0.792 µg/mL) | Active | Active | Active | Active | hemolysis at 1 h, 100 µM [1]: 56%; hemolysis at 1 h, 400 µM [11]: 77%; EC50 at 24 h [2]: 31 µM; EC50 at 24 h [3]: 67 µM; Ratio EC50 [4]: 2; EC50 at 1 h [5]: ~90 µM; selectivity ratio [6]: 60 |
| C=CCCC(=O)N[C@H](CCN)C(=O)N[C@@H](CCN)C(=O)N[C@@H](CC(C)C)C(=O)N[C@H](Cc1ccccc1)C(=O)N[C@@H](CCN)C(N)=O | 75.8 µM (≈ 50 µg/mL) | – | – | – | – | – |
| CCC(C)CCC(=O)N[C@H](CCN)C(=O)N[C@@H](CCN)C(=O)N[C@@H](CC(C)C)C(=O)N[C@H](Cc1ccccc1)C(=O)N[C@@H](CCN)C(N)=O (stereo partly drawn) (HELM PEPTIDE1{[CCC(C)CCC(=O)[*:2]].[NCC[C@@H](N[*:1])C(=O)[*:2]].[Dab].L.[dF].[Dab].[am]}$$$$V2.0) | 4.5 µM (≈ 3.1 µg/mL) | – | – | – | – | – |
| CN[C@@H]1[C@H](O[C@H]2[C@H](O[C@H]3[C@H](O)[C@@H](O)[C@H](N=C(N)N)[C@@H](O)[C@@H]3N=C(N)N)O[C@@H](C)[C@]2(O)C=O)O[C@@H](CO)[C@H](O)[C@H]1O [STREPTOMYCIN] | 1.3 µM (≈ 0.756 µg/mL) | – | – | – | – | – |
| POLYMYXIN B | – | Not Active | Not Active | Not Active | Not Active | EC50 (NCI-H460): 181 µM; EC50 (MDA-MB-231): > 1000 µM; EC50 (Erythrocyte): ≥ 1000 µM |
